Source: patent US8524744B2, “Arylamine ketones, their preparation methods, the pharmaceutical composition containing them and their use” (Institute of Mataria Medica, Chinese Academy of Medical …, priority 2004, dated 2013)
Counter-ions that a name gives are not always drawn.

Legend:
[1] = tested on: polymorphonuclear leucocytes from rat pleural cavity; assay: release of β-glucuronidase by polymorphonuclear leucocytes from rat pleural cavity in vitro (PAF as irritant); assay type: cell-based
Protocol: 1% carrageenan was injected into the right pleural cavity of Wistar rat to induce polymorphonuclear leucocytes. The cells was suspended in Dulbecoo's buffer at the concentration of 2.5×10^6 cells·ml^1. The fluid containing the compound or solvent and 250 μl of cells suspension were added in test tube and incubated in 37° C. waterbath for 15 min. Then 2.5 μl of cytochalasin B (1×10^−3 mol·L^−1) was added and the reaction was continued for 5 min. Then 2.5 μl of PAF (1×10^−4 mol·L^−1) was added and for another 5 min. The test tubes were put into ice bath to stop the reaction. The supernatant was isolated and used as the β-glucuronidase release fluid. 25 μl of the enzyme fluid, 25 μl of phenolphthalein-glucuronic acid (2.5 mmol·L^−1) and 100 μl of acetic acid buffer (0.1 mol·L^−1) were added into each well of 96-well plate which was placed into incubater and kept at 37° C.3 for 18 hr. 150 μl of NaOH (0.3 mol·L^−1) was added in each well to cease the reaction and the optical density was read at 550 nm.

[2] = tested on: mouse ear edema induced by croton oil; assay: mouse ear edema induced by croton oil; assay type: in vivo; settings: orally, 50 mg·kg^−1, Kunming mice
Protocol: Kuming mice (male, 18-22 g) were randomly divided into two groups (treatment and control) with 10 animals for each group. The animals were orally administrated with compounds or solvent, respectively. 1 hr later, 50 μl of 2% croton oil was smeared on the two sides of mouse left ear. After 4 hr the mice were sacrificed by cervical vertebra displacement. The two ears were cut off and the central sections were excised using a punch with a diameter of 8 mm and weighed. Edema was quantified as the weight difference between the two sections.

[3] = tested on: cutaneous vascular permeability in mice induced by PAF; assay: increase of cutaneous vascular permeability in mice induced by PAF; assay type: in vivo, mouse; settings: orally, 50 mg·kg^−1, Kunming mice
Protocol: Kunming mice (male, 18-22 g) were randomly divided into two groups (treatment and control) with 10 animals for each group. The animals were orally administrated with the compounds or solvent, respectively. 1 hr later, 0.25 ml of 1% evans blue dye was injected into the tail vein. After 10 min, 0.1 ml of PAF (1×10^−8 mol·L^−1) was intracutaneously injected into the dorsal skin shaved. 1 hr later, the animals were sacrificed by cervical vertebra displacement. The skin with blue spot was cut off. The evans blue dye was extracted by 0.8 ml of mixed solution of acetone and normal saline (7:3). The supernatant was transferred into the 96-well plate. The optical density was measured at 620 nm.

[4] = Dose 1 × 10^−5 mol · L^−1, Irritant 1 × 10^−6 mol · L^−1
[5] = Dose 1 × 10^−4 mol · L^−1, Irritant 2 × 10^−7 mol · L^−1
[6] = Dose 2 × 10^−6 mol · L^−1, Irritant 1 × 10^−7 mol · L^−1
[7] = Dose 1 × 10^−5 mol · L^−1, Irritant 1 × 10^−7 mol · L^−1

For `CCOC(=O)C1CCN(CCC(=O)C=Cc2ccc(O)cc2)CC1.Cl` [Compound 1, 5-[(4-Ethoxycarbonyl)piperidyl]-1-(4-hydroxyphenyl)-1-penten-3-one hydrochloride], the “Inhibition (%) of β-glucuronidase release” value ([1]; Dose 1 × 10^−5 mol · L^−1, Irritant 5 × 10^−7 mol · L^−1) was 97.87%.

For `Cl.O=C(C=Cc1ccc(F)cc1)CCN1CCC(Cc2ccccc2)CC1` [Compound 17, 5-[(4-Benzyl)piperidyl]-1-(4-fluorophenyl)-1-penten-3-one hydrochloride], the “Inhibition (%) of β-glucuronidase release” value [1, 4] was 37.64%.

In the case of `CN1CCN(CCC(=O)C=Cc2ccc3c(c2)OCO3)CC1.Cl` [Compound 52, 5-[(N4-Methyl)piperazyl]-1-(3,4-methylenedioxyphenyl)-1-penten-3-one hydrochloride], the “Inhibition (%) of β-glucuronidase release” value [1, 5] is reported as 31.2%.

In the case of `CCOC(=O)C1CCN(CCC(=O)/C=C/c2ccc(Cl)cc2)CC1` (as salt: hydrochloride) [Compound 3, 5-[(4-Ethoxycarbonyl)piperidyl]-1-(4-chlorophenyl)-1-penten-3-one hydrochloride], the melting point is reported as 172 to 174 °C.

For `CCOC(=O)C1CCCN(CCC(=O)C=Cc2ccc(Cl)cc2Cl)C1.Cl` (centres unmarked) [Compound 16, 5-[(3-Ethoxycarbonyl)piperidyl]-1-(2,4-dichlorophenyl)-1-penten-3-one hydrochloride], the “Inhibition (%) of mouse ear edema” value [2] was 29.05%, the “Inhibition (%) of β-glucuronidase release” value [1, 6] was 84.38% and the IC50 ([1]; rat polymorphonuclear leucocytes) was 0.0224 µM. For the same compound, the “Inhibition (%) of increase of cutaneous vascular permeability” value [3] was 48.09%.

With `CCCCOc1ccc(C=CC(=O)CCN2CCC(Cc3ccccc3)CC2)cc1.Cl` [Compound 22, 5-[(4-Benzyl)piperidyl]-1-(4-butoxyphenyl)-1-penten-3-one hydrochloride] the “Inhibition (%) of β-glucuronidase release” value [1, 4] was 69.00%.

For `CC1CN(CCC(=O)C=Cc2ccc(Br)cc2)CC(C)O1.Cl` (centres unmarked) [Compound 39b, 5-(2,6-Dimethylmorpholinyl)-1-(4-bromophenyl)-1-penten-3-one hydrochloride], the “Inhibition (%) of β-glucuronidase release” value [1, 4] was 40.48%.

With “5-[(N4-Benzyl)piperazyl]-1-(3,4-dimethoxyphenyl)-1-penten-3-one hydrochloride [Compound 48]” the “Inhibition (%) of β-glucuronidase release” value [1, 4] was 25.87%.

In the case of `COc1ccccc1N1CCN(CCC(=O)C=Cc2ccc(Cl)cc2)CC1.Cl` [Compound 58], the “Inhibition (%) of β-glucuronidase release” value [1, 4] is reported as 21.31%.

In the case of `Cl.O=C(C=Cc1ccc(Cl)cc1Cl)CCN1CCC(Cc2ccccc2)CC1` [Compound 23, 5-[(4-Benzyl)piperidyl]-1-(2,4-dichlorophenyl)-1-penten-3-one hydrochloride], the “Inhibition (%) of β-glucuronidase release” value [1, 4] is reported as 32.27%.

For `CCOC(=O)N1CCN(CCC(=O)C=Cc2cc(OC)c(OC)c(OC)c2)CC1.Cl` [Compound 28, 5-[(N4-Ethoxycarbonyl)piperazyl]-1-(3,4,5-trimethoxy)phenyl-1-penten-3-one hydrochloride], the “Inhibition (%) of β-glucuronidase release” value [1, 5] was 21.8%.

`COc1ccc(C=CC(=O)CCN2CC(C)OC(C)C2)cc1O` (centres unmarked) (as salt: hydrochloride) [Compound 36, 5-(2,6-Dimethylmorpholinyl)-1-(3-hydroxy-4-methoxyphenyl)-1-penten-3-one hydrochloride] gave a melting point of 194 to 196 °C.

In the case of “5-[(4-Ethoxycarbonyl)piperidyl]-1-(3,4-dimethoxyphenyl)-1-penten-3-one hydrochloride [Compound 4]”, the “Inhibition (%) of β-glucuronidase release” value [1, 4] is reported as 28.05%.

For `Cl.O=C(C=Cc1ccc2c(c1)OCO2)CCN1CCN(Cc2ccccc2)CC1` [Compound 51, 5-[(N4-Benzyl)piperazyl]-1-(3,4-methylenedioxyphenyl)-1-penten-3-one hydrochloride], the “Inhibition (%) of β-glucuronidase release” value [1, 5] was 55.1%.

`CCOc1cc(C=CC(=O)CCN2CC(C)OC(C)C2)ccc1O` (centres unmarked) (as salt: hydrochloride) [Compound 37, 5-(2,6-Dimethylmorpholinyl)-1-(3-ethoxy-4-hydroxyphenyl)-1-penten-3-one hydrochloride] showed a melting point of 198 to 201 °C.

In the case of `CCOC(=O)C1CCCN(CCC(=O)C=Cc2ccc3c(c2)OCO3)C1.Cl` (centres unmarked) [Compound 15, 5-[(3-Ethoxycarbonyl)piperidyl]-1-(3,4-methylenedioxyphenyl)-1-penten-3-one hydrochloride], the “Inhibition (%) of β-glucuronidase release” value [1, 7] is reported as 141.17%.

In the case of `CCOC(=O)C1CCCN(CCC(=O)C=Cc2ccc(OC)c(O)c2)C1.Cl` (centres unmarked) [Compound 14, 5-[(3-Ethoxycarbonyl)piperidyl]-1-(3-hydroxy-4-methoxyphenyl)-1-penten-3-one hydrochloride], the “Inhibition (%) of β-glucuronidase release” value [1, 4] is reported as 36.65%.

In the case of `CCOC(=O)N1CCN(CCC(=O)C=Cc2ccc(C#N)cc2)CC1.Cl` [Compound 34a, 5-[(N4-Ethoxycarbonyl)piperazyl]-1-(4-cyanophenyl)-1-penten-3-one hydrochloride], the “Inhibition (%) of β-glucuronidase release” value [1, 6] is reported as 121.34%.

With `CCOC(=O)C1CCCN(CCC(=O)C=Cc2ccc(OC)c(OCC)c2)C1.Cl` (centres unmarked) [Compound 12, 5-[(3-Ethoxycarbonyl)piperidyl]-1-(3-ethoxy-4-methoxyphenyl)-1-penten-3-one hydrochloride] the “Inhibition (%) of β-glucuronidase release” value [1, 7] was 181.48%.

For `O=C(C=Cc1ccc(C(F)(F)F)cc1)CCN1CCC(Cc2ccccc2)CC1` (as salt: hydrochloride) [Compound 20, 5-[(4-Benzyl)piperidyl]-1-(4-trifluoromethylphenyl)-1-penten-3-one hydrochloride], the melting point was 175 to 179 °C.

In the case of “5-[N4-(3,4-Methylenedioxy(benzyl)piperazyl)]-1-(3,4,5-trimethoxy-phenyl)-1-penten-3-one hydrochloride [Compound 54]”, the “Inhibition (%) of β-glucuronidase release” value [1, 4] is reported as 65.88%.

In the case of `COc1ccc(C=CC(=O)CCN2CCC(Cc3ccccc3)CC2)cc1` (as salt: hydrochloride) [Compound 22a, 5-[(4-Benzyl)piperidyl]-1-(4-methoxyphenyl)-1-penten-3-one hydrochloride], the melting point is reported as 180 to 184 °C.

With `Cc1ccc(C=CC(=O)CCN2CCC(Cc3ccccc3)CC2)cc1.Cl` [Compound 19, 5-[(4-benzyl)piperidyl]-1-(4-methylphenyl)-1-penten-3-one hydrochloride] the “Inhibition (%) of β-glucuronidase release” value ([1]; Dose 1 × 10^−5 mol · L^−1, Irritant 2 × 10^−7 mol · L^−1) was 79.01%.

For `CCOC(=O)N1CCN(CCC(=O)C=Cc2ccc(Br)cc2)CC1.Cl` [Compound 30, 5-[(N4-Ethoxycarbonyl)piperazyl]-1-(4-bromophenyl)-1-penten-3-one hydrochloride], the “Inhibition (%) of β-glucuronidase release” value [1, 4] was 23.54%.

With `CCOC(=O)C1CCN(CCC(=O)C=Cc2ccc(OCC)c(OC)c2)CC1.Cl` [Compound 5, 5-[(4-Ethoxycarbonyl)piperidyl]-1-(3-methoxy-4-ethoxyphenyl)-1-penten-3-one hydrochloride] the “Inhibition (%) of β-glucuronidase release” value [1, 4] was 45.34%.

For `CCOC(=O)C1CCCN(CCC(=O)C=Cc2ccc(Cl)cc2)C1.Cl` (centres unmarked) [Compound 13, 5-[(3-Ethoxycarbonyl)piperidyl]-1-(4-chloro)phenyl-1-penten-3-one hydrochloride], the “Inhibition (%) of β-glucuronidase release” value [1, 4] was 20.56%.
